Assay results as given in patent publication US10435375B2, “CXCR4 chemokine receptor modulators” (NORTHWESTERN UNIVERSITY, priority 2015, dated 2019).

Tests used:
Assay type in all cases: cell-based
KT1 cells = test: Cell viability assay measuring colony forming units of KT1 cells, with imatinib; details: combination with imatinib
Method: FIG. 21. Cell viability assay measuring colony forming units of KT1 cells. Cells were treated with kinase inhibitor imatinib, the indicated CXCR4 agent, or a combination, at the indicated concentrations.

[1] = tested on: cells from AML patient #2; test: Cell viability assay measuring colony forming units, cells from AML patient #2, with Ara-C; details: AML patient #2 cells; combination with Ara-C
Method: FIG. 22. Cell viability assay measuring colony forming units of from AML patient #2. Cells were treated with cytotoxic agent Ara-C, the indicated CXCR4 agent, or a combination.

CXCR4 = CXCR4 (Homo sapiens, UniProt P61073); test: Calcium imaging ((Ca)i mobilization) assay, fura-2, C8161 melanoma cells; parameters: human melanoma cell line C8161 was initially used, which expresses numerous human CXCR4 receptors; endogenous in cells; host or cells: C8161 human melanoma cells
Description: The initial assay for examining the activity of different molecules was based on the fact that activation of CXCR4 receptors produces an increase in the intracellular free Ca^2+ concentration (Ca)i. This signal can easily be observed using a fluorescent Ca^2+ sensing dye such as fura-2. The quantitative nature of this assay makes it ideal for screening purposes. Moreover, the assay can also distinguish potential antagonists from potential agonists. The aggressive human melanoma cell line C8161 was initially used, which expresses numerous human CXCR4 receptors and produces strong (Ca)I signals when stimulated with SDF-1 (FIG. 3). In the assay, cells were usually stimulated twice with SDF-1. […] To test a drug, the compound in question was usually added prior to the second stimulation with SDF-1. At this point it was possible to observe whether the compound itself acted as an agonist by giving its own response or if it reduced the magnitude of the second response to SDF-1. […] Each of the four antagonists were then assayed at multiple concentrations to obtain a dose-response relationship and an estimated IC50. Antagonists NUCC-388, 397, 392, and 51420 had IC50 values of 0.3 μM, 3 μM, 1 μM, and 1 μM respectively.

CXCR4, sequence (P61073 whole entry): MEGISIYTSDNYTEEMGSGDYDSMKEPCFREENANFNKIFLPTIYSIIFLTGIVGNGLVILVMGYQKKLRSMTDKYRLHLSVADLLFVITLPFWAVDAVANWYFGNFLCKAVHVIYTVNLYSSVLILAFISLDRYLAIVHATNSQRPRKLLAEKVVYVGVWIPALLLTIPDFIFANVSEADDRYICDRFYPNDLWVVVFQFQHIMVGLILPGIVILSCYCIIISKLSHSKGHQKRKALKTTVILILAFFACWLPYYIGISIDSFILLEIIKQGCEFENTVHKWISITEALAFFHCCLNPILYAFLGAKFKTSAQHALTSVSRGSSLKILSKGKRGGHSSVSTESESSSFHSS

**Q.** Which results are given for CCCn1nc(C(=O)N(C)C)c2c1CCC(NCc1ccc(F)cc1)C2 (stereo not drawn) [NUCC-0054121, 5-((4-Fluorobenzyl)amino)—N,N-dimethyl-1-propyl-4,5,6,7-tetrahydro-1H-indazole-3-carboxamide]?
**A.** effect on cell killing by imatinib (colony forming units) (KT1 cells): enhanced the cell killing ability of imatinib; effect on cell killing by Ara-C (colony forming units) [1]: enhanced the cell killing ability of Ara-C; compound's (Ca)i response in presence of CXCR4 antagonist AMD3100 (CXCR4; C8161 cells, AMD3100 1 μM where stated): inhibited by AMD3100; own (Ca)i response (agonist effect) (CXCR4; C8161 cells, compounds 10 μM where stated, SDF-1 100 nM): robust agonist activity; Ca^2+ Assay (CXCR4; Table 1, calcium imaging behavior): Agonist; Pharmacology (CXCR4; Table 2, agonist or antagonist): Agonist
